Measurements published in ChEMBL document CHEMBL5143724, “Small Molecules Promote Selective Denaturation and Degradation of Tubulin Heterodimers through a Low-Barrier Hydrogen Bond” (J Med Chem, 2022).
One block for each compound: values may come before it. Active and inactive are the calls of the source. The calls are words filed in the database; no cut-off is given here.

Tests used:
[1] = biological target: T1, Tubulin beta (Homo sapiens) (UniProt P68371+Q9H4B7+Q13509+P04350+Q3ZCM7+P07437+Q13885+Q9BVA1+Q9BUF5+A6NNZ2); assay: Induction of Beta tubulin degradation in human HeLa cells at 0.001 to 100 uM incubated for 16 hrs by immunoblotting analysis; assay type: cell-based; details: dose 0.001-100 µM
[2] = system: HeLa; assay: Antiproliferative activity against human HeLa cells assessed as cell viability at 0.001 to 100 uM incubated for 48 hrs by MTT assay; assay type: functional, cell-based; details: dose 0.001-100 µM
[3] = system: HeLa; assay: Reduction in Beta tubulin mRNA expression in human HeLa cells at 1 uM measured upto 16 hrs by qPCR analysis; assay type: functional, cell-based
[4] = biological target: T2, Tubulin (Homo sapiens) (UniProt P68371+Q9H4B7+P0DPH7+P68366+Q13509+Q71U36+P04350+Q3ZCM7+P07437+P68363+Q9BQE3+Q6PEY2+Q13885+Q9BVA1+Q9BUF5); assay: Destabilization of tubulin (unknown origin) assessed as melting temperature at 30 uM incubated for 20 mins by differential scanning fluorimetry; assay type: protein-complex assay
[5] = system: HeLa; assay: Induction of FLAG tagged Beta tubulin E198G mutant (unknown origin) transfected in HeLa cells incubated for 16 hrs by immunoblotting analysis; assay type: cell-based; details: Homo sapiens
[6] = system: SU-DHL-6; assay: Downregulation of Alpha tubulin level in human SU-DHL-6 cells incubated for 24 hrs by immunoblot analysis; assay type: functional, cell-based; details: dose 0.1-10 µM, DDE = dose-dependent effect
[7] = system: HCT-116; assay: In vivo antitumor activity against human HCT-116 cells xenografted in mouse model assessed as reduction in alpha tubulin level at 80 mg/kg administered once through tail vein injection measured after 24 hrs by immunoblot analysis; assay type: functional, organism-based
[8] = biological target: T1, Tubulin beta (Homo sapiens); assay: Binding affinity to Beta-tubulin colchicine binding site in human HeLa cells assessed as inhibition of tubulin-EBI adduct formation at 2 to 25 uM pretreated fo 1 hr with compound followed by EBI addition measured after 2 hrs by Western blotting analysis; assay type: cell-based; details: dose 2-25 µM, time 3.0 hrs
[9] = biological target: T3, Tubulin alpha (Homo sapiens) (UniProt P0DPH7+P68366+Q71U36+P68363+Q9BQE3+Q6PEY2+A6NHL2+Q9NY65); assay: Induction of Alpha tubulin degradation in human HeLa cells at 1 uM incubated for 16 hrs in presence of pironetin by immunoblot analysis; assay type: cell-based
[10] = biological target: Tubulin beta; assay: Induction of Beta tubulin degradation in human HeLa cells incubated for 24 hrs by immunoblot analysis; assay type: cell-based
[11] = system: SU-DHL-6; assay: Downregulation of Beta tubulin level in human SU-DHL-6 cells incubated for 24 hrs by immunoblot analysis; assay type: functional, cell-based; details: dose 0.1-10 µM, DDE = dose-dependent effect
[12] = system: HeLa; assay: Downregulation of Beta tubulin level in human HeLa cells at 1 uM measured for 6 hrs by tandem mass tag quantitative proteomic analysis; assay type: functional, cell-based
[13] = system: HCT-116; assay: In vivo antitumor activity against human HCT-116 cells xenografted in mouse model assessed as reduction in beta tubulin level at 80 mg/kg administered once through tail vein injection measured after 24 hrs by immunoblot analysis; assay type: functional, organism-based
[14] = system: HeLa; assay: Downregulation of Beta tubulin level in human HeLa cells at 1 uM by immunoblot analysis; assay type: functional, cell-based; details: time 1-16 hrs, TDE = time-dependent effect
[15] = biological target: T1, Tubulin beta (Homo sapiens); assay: Induction of Beta tubulin degradation in human HeLa cells at 1 uM incubated for 16 hrs in presence of maytansine by immunoblot analysis; assay type: cell-based
[16] = system: HeLa; assay: Downregulation of Alpha tubulin level in human HeLa cells at 1 uM by immunoblot analysis; assay type: functional, cell-based; details: time 1-16 hrs, TDE = time-dependent effect
[17] = system: HCT-116; assay: In vivo antitumor activity against human HCT-116 cells xenografted in Balb/c nude athymic mouse assessed as inhibition of tumor growth administered ip once a week and measured every 2 days for 24 days; assay type: functional, organism-based; details: dose 10-40 mg/kg, time 2.0 day, DDE = dose-dependent effect
[18] = system: HeLa; assay: Antiproliferative activity against human Hela cells assessed as cell viability at 0.001 to 100 microM incubated for 72 hrs by MTT assay; assay type: functional, cell-based; details: dose 0.001-100 µM
[19] = biological target: T2, Tubulin (Homo sapiens); assay: Induction of tubulin […] (unknown origin) assessed as increase in turbidity at 5 to 20 uM measured every one min for 30 mins by absorbance based analysis; assay type: protein-complex assay; details: dose 5-20 µM
[20] = system: HeLa; assay: Induction of apoptosis in human HeLa cells assessed as accumulation of cells at G2/M phase 0.1 to 10 uM incubated for 16 hrs by propidium iodide staining based flow cytometry; assay type: functional, cell-based; details: dose 0.1-10 µM
[21] = system: HCT-116; assay: Downregulation of Beta tubulin level in human HCT-116 cells at 1 uM by immunoblot analysis; assay type: functional, cell-based; details: time 1-16 hrs, TDE = time-dependent effect
[22] = system: NCI-H460; assay: In vivo antitumor activity against human NCI-H460 cells xenografted in Balb/c nude athymic mouse assessed as inhibition of tumor growth administered ip once a week and measured every 2 days for 24 days; assay type: functional, organism-based; details: dose 10-40 mg/kg, time 2.0 day, DDE = dose-dependent effect
[23] = system: HCT-116; assay: Downregulation of Alpha tubulin level in human HCT-116 cells incubated for 24 hrs by immunoblot analysis; assay type: functional, cell-based; details: dose 0.1-10 µM, DDE = dose-dependent effect
[24] = biological target: T3, Tubulin alpha (Homo sapiens); assay: Induction of Alpha tubulin degradation in human HeLa cells at 1 uM incubated for 16 hrs in presence of vinblastine by immunoblot analysis; assay type: cell-based
[25] = system: NCI-H460; assay: Downregulation of Beta tubulin level in human NCI-H460 cells incubated for 24 hrs by immunoblot analysis; assay type: functional, cell-based; details: dose 0.1-10 µM, DDE = dose-dependent effect
[26] = system: HeLa; assay: Reduction in Alpha tubulin mRNA expression in human HeLa cells at 1 uM measured upto 16 hrs by qPCR analysis; assay type: functional, cell-based
[27] = biological target: T4, Tubulin (Sus scrofa) (UniProt P02554+P02550); assay: Inhibition of porcine tubulin polymerization measured every 1 min for 30 mins in presence of GTP by microplate reader analysis; assay type: protein assay; details: dose 5-20 µM, DDE = dose-dependent effect
T4 sequence (P02550 whole entry, looked up): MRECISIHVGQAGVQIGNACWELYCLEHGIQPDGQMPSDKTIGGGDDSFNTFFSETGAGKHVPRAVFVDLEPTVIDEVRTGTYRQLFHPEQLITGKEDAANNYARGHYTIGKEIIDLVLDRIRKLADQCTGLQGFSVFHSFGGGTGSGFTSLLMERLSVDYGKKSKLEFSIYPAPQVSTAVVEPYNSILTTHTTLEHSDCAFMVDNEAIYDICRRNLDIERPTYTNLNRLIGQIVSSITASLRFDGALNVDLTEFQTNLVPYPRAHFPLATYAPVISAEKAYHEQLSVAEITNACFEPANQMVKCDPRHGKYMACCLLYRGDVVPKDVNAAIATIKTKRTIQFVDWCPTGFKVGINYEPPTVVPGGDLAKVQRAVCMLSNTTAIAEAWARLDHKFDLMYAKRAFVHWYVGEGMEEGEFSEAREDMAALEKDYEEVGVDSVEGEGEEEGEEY
T4 sequence (P02554 whole entry, looked up): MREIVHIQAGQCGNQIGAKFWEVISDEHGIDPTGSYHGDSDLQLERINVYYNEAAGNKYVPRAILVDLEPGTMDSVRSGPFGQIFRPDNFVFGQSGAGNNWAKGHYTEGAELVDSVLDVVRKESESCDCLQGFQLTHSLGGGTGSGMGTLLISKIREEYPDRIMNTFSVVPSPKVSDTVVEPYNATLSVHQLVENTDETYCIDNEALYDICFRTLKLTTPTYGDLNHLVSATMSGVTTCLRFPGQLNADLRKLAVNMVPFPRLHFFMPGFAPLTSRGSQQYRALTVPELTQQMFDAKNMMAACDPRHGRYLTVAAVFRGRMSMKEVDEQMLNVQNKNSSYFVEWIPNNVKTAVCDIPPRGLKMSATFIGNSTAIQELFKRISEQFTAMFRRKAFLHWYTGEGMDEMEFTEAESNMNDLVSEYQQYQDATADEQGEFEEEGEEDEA

[28] = system: Tubulin beta (Homo sapiens), P68371+Q9H4B7+Q13509+P04350+Q3ZCM7+P07437+Q13885+Q9BVA1+Q9BUF5+A6NNZ2 [UNDEFINED MUTATION]; assay: Induction of FLAG tagged Beta tubulin (unknown origin) Y200F mutant transfected in human HeLa cells incubated for 16 hrs by immunoblotting analysis; assay type: cell-based
[29] = system: HCT-116; assay: Antiproliferative activity against human HCT-116 cells assessed as cell viability at 0.001 to 100 uM incubated for 72 hrs by MTT assay; assay type: functional, cell-based; details: dose 0.001-100 µM
[30] = system: HeLa; assay: Downregulation of Alpha tubulin level in human HeLa cells incubated for 24 hrs by immunoblot analysis; assay type: functional, cell-based; details: dose 0.1-10 µM, DDE = dose-dependent effect
[31] = system: HCT-116; assay: Downregulation of Alpha tubulin level in human HCT-116 cells at 1 uM by immunoblot analysis; assay type: functional, cell-based; details: time 1-16 hrs, TDE = time-dependent effect
[32] = biological target: T3, Tubulin alpha (Homo sapiens); assay: Induction of Alpha tubulin degradation in human HeLa cells assessed as increase in ubiquitination level of Alpha tubulin at 1 to 10 uM incubated for 6 hrs by immunoblot analysis; assay type: cell-based; details: dose 1-10 µM
[33] = biological target: T1, Tubulin beta (Homo sapiens); assay: Induction of wild type flag tagged Beta tubulin (unknown origin) transfected in HeLa cells incubated for 16 hrs by immunoblotting analysis; assay type: cell-based
[34] = biological target: T1, Tubulin beta (Homo sapiens); assay: Induction of Beta tubulin degradation in human HeLa cells assessed as increase in ubiquitination level of Beta tubulin at 1 to 10 uM incubated for 6 hrs by immunoblot analysis; assay type: cell-based; details: dose 1-10 µM
[35] = biological target: T1, Tubulin beta (Homo sapiens); assay: Induction of Beta tubulin degradation in human HeLa cells at 1 uM incubated for 16 hrs in presence of pironetin by immunoblot analysis; assay type: cell-based
[36] = system: HCT-116; assay: Downregulation of Beta tubulin level in human HCT-116 cells incubated for 24 hrs by immunoblot analysis; assay type: functional, cell-based; details: dose 0.1-10 µM, DDE = dose-dependent effect
[37] = biological target: T2, Tubulin (Homo sapiens); assay: Induction of tubulin aggregation in human HeLa cells by size-exclusion chromatography; assay type: cell-based
[38] = system: HeLa; assay: Downregulation of Beta tubulin level in human HeLa cells incubated for 24 hrs by immunoblot analysis; assay type: functional, cell-based; details: dose 0.1-10 µM, DDE = dose-dependent effect
[39] = system: HeLa; assay: Downregulation of Alpha tubulin level in human HeLa cells at 1 uM measured for 6 hrs by tandem mass tag quantitative proteomic analysis; assay type: functional, cell-based
[40] = biological target: Tubulin alpha; assay: Induction of Alpha tubulin degradation in human HeLa cells incubated for 24 hrs by immunoblot analysis; assay type: cell-based
[41] = biological target: T3, Tubulin alpha (Homo sapiens); assay: Induction of Alpha tubulin degradation in human HeLa cells at 1 uM incubated for 16 hrs in presence of maytansine by immunoblot analysis; assay type: cell-based
[42] = biological target: T2, Tubulin (Homo sapiens); assay: Induction of tubulin degradation in human HeLa cells assessed as ubiquitin of total protein at 0.01 to 100 uM incubated for 16 hrs by immunoblot analysis; assay type: cell-based; details: dose 0.01-100 µM
[43] = system: HCT-116; assay: Induction of apoptosis in human HCT-116 cells assessed as accumulation of cells at G2/M phase 0.1 to 10 uM incubated for 16 hrs by propidium iodide staining based flow cytometry; assay type: functional, cell-based; details: dose 0.1-10 µM
[44] = biological target: T1, Tubulin beta (Homo sapiens); assay: Induction of Beta tubulin degradation in human HeLa cells at 1 uM incubated for 16 hrs in presence of vinblastine by immunoblot analysis; assay type: cell-based
[45] = system: NCI-H460; assay: Downregulation of Alpha tubulin level in human NCI-H460 cells incubated for 24 hrs by immunoblot analysis; assay type: functional, cell-based; details: dose 0.1-10 µM, DDE = dose-dependent effect
[46] = system: NCI-H460; assay: Antiproliferative activity against human NCI-H460 cells assessed as cell viability at 0.001 to 100 uM incubated for 72 hrs by MTT assay; assay type: functional, cell-based; details: dose 0.001-100 µM
[47] = biological target: T4, Tubulin (Sus scrofa); assay: Induction of porcine tubulin aggregation assessed as formation of spherical sized tubulin aggregates at 20 uM incubated for 4 hrs by TEM analysis; assay type: protein assay
[48] = system: HeLa; assay: Induction of FLAG tagged Beta tubulin E198Q mutant (unknown origin) transfected in HeLa cells incubated for 16 hrs by immunoblotting analysis; assay type: cell-based; details: Homo sapiens
[49] = system: Tubulin beta (Homo sapiens), P68371+Q9H4B7+Q13509+P04350+Q3ZCM7+P07437+Q13885+Q9BVA1+Q9BUF5+A6NNZ2 [UNDEFINED MUTATION]; assay: Induction of FLAG tagged Beta tubulin E198D mutant (unknown origin) transfected in HeLa cells incubated for 16 hrs by immunoblotting analysis; assay type: cell-based

Activity [1]: Active
Compound: c1ccc(Oc2cccc(CNc3cc4ccccc4cn3)c2)cc1
Activity [2]: Active

Tm [4]: 51.5 °C
Activity [8]: Active
Activity [9]: Active
DC50 [10]: 524 nM
Activity [15]: Active
Activity [19]: Active
Activity [24]: Active
inhibition [27]: Dde
Activity [28]: Active
Activity [32]: Active
Activity [33]: Active
Activity [34]: Active
Activity [35]: Active
Activity [37]: Active
DC50 [40]: 182 nM
Activity [41]: Active
Activity [42]: Active
Activity [44]: Active
Activity [47]: Active
Activity [49]: Active
Compound: c1ccc(Oc2cccc(CNc3cc4c(cn3)[nH]c3ccccc34)c2)cc1
Activity [3]: Active
Activity [5]: Active
Activity [6]: Dde
Activity [7]: Active
Activity [11]: Dde
Activity [12]: Active
Activity [13]: Active
Activity [14]: Tde
Activity [16]: Tde
Activity [17]: Dde
Activity [18]: Active
Activity [20]: Active
Activity [21]: Tde
Activity [22]: Dde
Activity [23]: Dde
Activity [25]: Dde
Activity [26]: Active
Activity [29]: Active
Activity [30]: Dde
Activity [31]: Tde
Activity [36]: Dde
Activity [38]: Dde
Activity [39]: Active
Activity [43]: Active
Activity [45]: Dde
Activity [46]: Active
Activity [48]: Active
